IC50 and melting point data for nine compounds are collected here from publication PMC6009932, “Small molecule purine and pseudopurine derivatives: synthesis, cytostatic evaluations and investigation of growth inhibitory effect in non-small cell lung cancer A549” (Journal of Enzyme Inhibition and Medicinal Chemistry, 2017).

Data set [1] concerns WI38 normal human lung fibroblasts. The data set is described as follows: Proliferation assay (MTT, 72 h) on normal lung fibroblasts WI38. The class given is cell-based. The following applies: WI-38, read-out: IC50 WI38/HFF-1 (WI38). The protocol:
(§1) Human carcinoma cell lines A549 (lung carcinoma), HeLa (cervical carcinoma), SW620 (colorectal adenocarcinoma, metastatic), and CFPAC-1 (pancreatic cancer, derived from metastatic: liver), normal human lung (WI38) and foreskin (HFF-1) fibroblasts were obtained from the American Type Culture Collection (ATCC). Cells were cultured in humidified atmosphere at 37 °C with 5% CO2. As growth medium, Dulbecco’s modified Eagle medium (DMEM) was used with the addition of foetal bovine serum (10%), L-glutamine (2 mM) and antibiotics: streptomycin (100 µg/ml) and penicillin (100 U/ml).
(§2) Cells were seeded onto 96-well microtiter plates at a seeding density of 3000 cells/well for carcinoma cell lines, and 5000 cells/well for normal human fibroblasts. The next day, cells were treated with test agents in five different concentrations (0.01–100 µM) and further incubated for 72 h. […] Following 72 h incubation, the MTT assay was performed and measured absorbances were transformed into percentage of cell growth as described previously. Results were obtained from three independent experiments. IC50 values were calculated using linear regression analysis and results were statistically analysed by ANOVA, Tukey post-hoc test (p < .05).

Data set [2] deals with CFPAC-1 (ductal pancreatic adenocarcinoma). The data set can be described thus: Proliferation assay (MTT, 72 h) on CFPAC-1. Type of data set: cell-based. The conditions noted are these: Homo sapiens. The procedure: as §1, §2
The test system of data set [3] is A549 (lung carcinoma). The data set can be described thus: Proliferation assay (MTT, 72 h) on A549. The class given is cell-based. The following applies: Homo sapiens, A549 lung adenocarcinoma. The procedure:
as §1, §2

Data set [4] deals with HeLa (cervical carcinoma). The data set is described as follows: Proliferation assay (MTT, 72 h) on HeLa. Type of data set: cell-based. The following applies: Homo sapiens. The protocol:
as §1, §2

Data set [5] relates to SW620 (colorectal adenocarcinoma, metastatic). The data set is described as follows: Proliferation assay (MTT, 72 h) on SW620. Type of data set: cell-based. The following applies: Homo sapiens, SW-620. The procedure:
as §1, §2

Data set [6] deals with HFF-1 normal human foreskin fibroblasts. The data set is described as follows: Proliferation assay (MTT, 72 h) on normal foreskin fibroblasts HFF-1. Type of data set: cell-based. The conditions noted are these: compounds 11a–e tested in HFF-1 cell line, read-out: IC50 WI38/HFF-1 (HFF-1). The protocol: as §1, §2

For orientation: melting point means the temperature, or range, at which the solid turns liquid. `FC(F)(F)c1ccc(-n2cc(Cn3cc(Br)c4c(Cl)ncnc43)nn2)cc1` [Compound 9c, 5-Bromo-4-chloro-7-{[1-(4-(trifluoromethyl)phenyl)-1H-1,2,3-triazol-4-yl]methyl}-7H-pyrrolo[2,3-d]pyrimidine] gave a melting point of 220 to 221 °C. Further, the IC50 in data set [1] worked out at 57.5 µM. In data set [2], this compound came in with an IC50 of 62.8 µM. The IC50 in data set [3] is 66.4 µM. In addition, in data set [4], the IC50 is 32.9 µM. Also, the IC50 in data set [5] worked out at 55.7 µM.
`Fc1ccccc1-n1cc(Cn2cc(Br)c3c(Cl)ncnc32)nn1` [Compound 9d, 5-Bromo-4-chloro-7-{[1–(2-fluorophenyl)-1 H-1,2,3-triazol-4-yl]methyl}-7 H-pyrrolo[2,3-d]pyrimidine] returned a melting point of 145 to 147 °C. Besides, in data set [1], the IC50 amounted to 48.5 µM. In addition, the IC50 in data set [2] was 65.1 µM. Besides, in data set [3], the IC50 came out at 86.4 µM. The IC50 in data set [4] was 20 µM. Further, the IC50 in data set [5] worked out at 65.9 µM.
Take `O=c1cc(Cn2cc(Cn3cc(Br)c4c(Cl)ncnc43)nn2)c2ccc(O)cc2o1` [Compound 9e, 4-{[4-((5-Bromo-4-chloro-7H-pyrrolo[2,3-d]pyrimidin-7-yl)methyl)-1H-1,2,3-triazol-1-yl]methyl}-7-hydroxy-2H-chromen-2-one]: the melting point is over 250 °C. Besides, the IC50 in data set [1] is 10.8 µM. The same compound came in with an IC50 in data set [2] of 47.3 µM. Also, in data set [3], the IC50 came out at 45.5 µM. In data set [4], this compound returned an IC50 of 24.5 µM. For the same compound, the IC50 in data set [5] was 45.1 µM.
Compound `Fc1ccc2c(ccn2Cc2cn(-c3ccc(Cl)cc3)nn2)c1` [Compound 10b] displayed a melting point of 117 to 120 °C. Moreover, the IC50 in data set [1] was 58.1 µM. In data set [2], this compound came in with an IC50 of over 100 µM. In data set [3], this compound gave an IC50 of 40.2 µM. The IC50 in data set [4] worked out at 31 µM. Moreover, the IC50 in data set [5] was 45.8 µM.
The compound `Fc1ccc2c(ccn2Cc2cn(-c3ccc(C(F)(F)F)cc3)nn2)c1` [Compound 10c, 5-Fluoro-1-{[1–(4-(trifluoromethyl)phenyl)-1 H-1,2,3-triazol-4-yl]methyl}-1 H-indole] registered a melting point of 151 to 154 °C. Besides, the IC50 in data set [1] came out at 24 µM. For the same compound, in data set [2], the IC50 is 64.7 µM. The compound further came in with an IC50 in data set [3] of 71.6 µM. The compound further registered an IC50 in data set [4] of 53 µM. In addition, in data set [5], the IC50 was 54.2 µM.
The compound `O=c1cc(Cn2cc(Cn3ccc4cc(F)ccc43)nn2)c2ccc(O)cc2o1` [Compound 10e, 4-{[4-((5-Fluoro-1H-indol-1-yl)methyl)-1H-1,2,3-triazol-1-yl]methyl}-7-hydroxy-2H-chromen-2-one] showed a melting point of 181 to 184 °C. In addition, the IC50 in data set [1] came to 45.7 µM. In data set [2], the IC50 stood at 77.1 µM. This compound also showed an IC50 in data set [3] of 51.9 µM. In data set [4], this compound gave an IC50 of 47.6 µM. The IC50 in data set [5] amounted to 57.6 µM.
On to `Fc1ccc(-n2cc(Cn3ccc4ccccc43)nn2)cc1` [Compound 11a, 1-{[1-(4-Fluorophenyl)-1H-1,2,3-triazol-4-yl]methyl}-1H-indole], for which the IC50 is over 100 µM in data set [2]; 44 µM in data set [3]; over 100 µM in data set [4]; over 100 µM in data set [6]; 43.3 µM in data set [5].
In the case of `Clc1ccc(-n2cc(Cn3ccc4ccccc43)nn2)cc1` [Compound 11b, 1-{[1-(4-Chlorophenyl)-1H-1,2,3-triazol-4-yl]methyl}-1H-indole], the IC50 in data set [2], in data set [3], in data set [4], in data set [6] and in data set [5] was over 100 µM each time.
For `FC(F)(F)c1ccc(-n2cc(Cn3ccc4ccccc43)nn2)cc1` [Compound 11c, 1-{[1-(4-(Trifluoromethyl)phenyl)-1H-1,2,3-triazol-4-yl]methyl}-1H-indole], the IC50 in data set [2], in data set [3], in data set [4], in data set [6] and in data set [5] was over 100 µM each time.
